# In patent publication US10118947B2, “Modulation of structured polypeptide specificity” (BICYCLE THERAPEUTICS LIMITED, priority 2013, dated 2018):
# Read-outs that look alike come from different tables or passages of the source. Numbered stars: 1 amine (or outer) side, 2 acyl side, 3 side chain; on linkers, the order of the positions; unused ones are H or OH. Bridge positions count the residues as written; N and C are the ends. Square brackets hold non-standard residues; d marks the D form. Peptide text beside a SMILES is read from it. Gly(N-CH2CH2-imidazol-4-yl) = O=C(O)CNCCc1c[nH]cn1; TBMB = c1c(C[*:1])cc(C[*:3])cc1C[*:2]; NMeH = CN[C@@H](Cc1c[nH]cn1)C(=O)O; NMeQ = CN[C@@H](CCC(N)=O)C(=O)O; NMeD = CN[C@@H](CC(=O)O)C(=O)O
# How the values were obtained:
# [1] = Plasma stability / fragment profiling Method #2 (MALDI-TOF, 95% plasma), human plasma; type: in vitro ADME; conditions: for Fragments (human plasma): peptide fragments observed after incubation in human plasma
# Protocol: To obtain stability data more rapidly, peptides were also assessed in 95% plasma. Here, PBS was omitted, and a 1 mM peptide stock (in DMSO) was directly diluted into plasma (i.e. 2.5 uL stock into 47.5 uL plasma), giving a final concentration of 50 uM. 5 uL samples were taken at appropriate time points and frozen at −80 deg C. For analysis, the samples were defrosted, mixed with 15 uL of 1:1 acetonitrile:methanol, and centrifuged at 13 k for 5 min. 5 uL of the peptide-containing supernatant was aspirated and mixed with 30 mM ammonium bicarbonate in a 1:1 mixture of acetonitrile:H2O. 1 uL of this was then spotted on the MALDI plate and analysed as described above. As above, it should be noted that this is a qualitative assay serves to detect relative changes in plasma stability.
# Ac-06-34-18(TMB)-NH2 Phe2 Tyr4 (referred to as wild type peptide) was subsequently subjected to human plasma, and analysed for fragments to appear over time. This was compared to the degradation profile observed in human plasma using the NMe-Arg5 derivative of 06-34-18 (FIGS. 18a and 18b). Fragmentation was determined according to Method #2.
# human plasma Kallikrein = target: T1, human plasma Kallikrein (Homo sapiens, UniProt P03952); assay: Functional enzyme inhibition assay with fluorogenic substrate Z-PheArg-AMC, human plasma Kallikrein; type: biochemical; conditions: for Ki: read-out: Ki
# T1 construct: purchased Stratech, UK
# Method in brief: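 Human plasma kallikrein at 26.5 pM was preincubated 15 minutes with test peptide in Tris/NaCl/MgCl2/CaCl2/BSA buffer pH7.4 at 25° C, then Z-PheArg-AMC added to 100 μM final in 4% DMSO.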
# [2] = Table 3a, Alanine scan in Loop2
# [3] = Table 3a, ratio of Ki to wild type
# [4] = Table 3b, D-amino acid scan in Loop2
# [5] = Table 3b, ratio of Ki to wild type
# [6] = Table 25a, fold change of Ki of variant compared to WT
# [7] = Table 25a, α-N-methyl amino acid scan in Loop2, human plasma kallikrein
# T1 sequence (P03952 20-638): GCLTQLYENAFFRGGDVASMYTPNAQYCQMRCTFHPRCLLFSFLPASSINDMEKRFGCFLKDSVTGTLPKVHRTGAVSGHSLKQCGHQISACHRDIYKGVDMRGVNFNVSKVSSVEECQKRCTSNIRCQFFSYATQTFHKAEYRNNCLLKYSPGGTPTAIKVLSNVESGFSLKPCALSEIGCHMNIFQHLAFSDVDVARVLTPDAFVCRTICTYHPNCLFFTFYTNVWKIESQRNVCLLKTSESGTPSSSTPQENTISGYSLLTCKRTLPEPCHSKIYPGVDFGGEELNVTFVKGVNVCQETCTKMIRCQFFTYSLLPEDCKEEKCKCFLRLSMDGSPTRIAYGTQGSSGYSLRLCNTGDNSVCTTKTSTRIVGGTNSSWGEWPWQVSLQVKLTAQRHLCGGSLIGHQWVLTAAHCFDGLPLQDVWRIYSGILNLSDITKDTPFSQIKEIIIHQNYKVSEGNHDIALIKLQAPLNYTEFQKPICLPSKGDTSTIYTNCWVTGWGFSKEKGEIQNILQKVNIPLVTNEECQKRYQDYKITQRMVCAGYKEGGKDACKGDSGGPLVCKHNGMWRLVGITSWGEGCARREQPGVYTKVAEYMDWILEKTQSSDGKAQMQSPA
structure (smiles),measurement,setting,value
CC(=O)N[C@H]1CSCc2cc3cc(c2)CSC[C@H](NC(=O)[C@H](CCCNC(=N)N)NC(=O)[C@H](Cc2ccc(O)cc2)NC(=O)[C@@H]2CCCN2C(=O)[C@H](Cc2ccccc2)NC(=O)[C@H](CO)NC1=O)C(=O)N[C@@H](C)C(=O)N[C@@H](Cc1c[nH]cn1)C(=O)N[C@@H](CCC(N)=O)C(=O)N[C@@H](CC(=O)O)C(=O)N[C@@H](CC(C)C)C(=O)N[C@H](C(N)=O)CSC3 [Ac-(06-34-18) Phe2 Tyr4 Ala6] (Ac-CSFPYRCAHQDLC-NH2; linker 1-7-13 via TBMB),Fragments (human plasma),[1]; Table 3a,"-LHQ, -R"
same,Ki,human plasma Kallikrein; [2],1.9 nM
same,F (Kivar/KiWT),human plasma Kallikrein; [3],5
CC(=O)N[C@H]1CSCc2cc3cc(c2)CSC[C@H](NC(=O)[C@H](CCCNC(=N)N)NC(=O)[C@H](Cc2ccc(O)cc2)NC(=O)[C@@H]2CCCN2C(=O)[C@H](Cc2ccccc2)NC(=O)[C@H](CO)NC1=O)C(=O)N[C@@H](CC(C)C)C(=O)N[C@@H](C)C(=O)N[C@@H](CCC(N)=O)C(=O)N[C@@H](CC(=O)O)C(=O)N[C@@H](CC(C)C)C(=O)N[C@H](C(N)=O)CSC3 [Ac-(06-34-18) Phe2 Tyr4 Ala7] (Ac-CSFPYRCLAQDLC-NH2; linker 1-7-13 via TBMB),Fragments (human plasma),[1]; Table 3a,-R
same,Kd,human plasma Kallikrein,23 nM
same,reduction in potency/affinity compared to wildtype,human plasma Kallikrein,56 fold
same,Ki,human plasma Kallikrein; [2],23.4 nM
same,F (Kivar/KiWT),human plasma Kallikrein; [3],56
CC(=O)N[C@H]1CSCc2cc3cc(c2)CSC[C@H](NC(=O)[C@H](CCCNC(=N)N)NC(=O)[C@H](Cc2ccc(O)cc2)NC(=O)[C@@H]2CCCN2C(=O)[C@H](Cc2ccccc2)NC(=O)[C@H](CO)NC1=O)C(=O)N[C@@H](CC(C)C)C(=O)N[C@@H](Cc1c[nH]cn1)C(=O)N[C@@H](C)C(=O)N[C@@H](CC(=O)O)C(=O)N[C@@H](CC(C)C)C(=O)N[C@H](C(N)=O)CSC3 [Ac-(06-34-18) Phe2 Tyr4 Ala8] (Ac-CSFPYRCLHADLC-NH2; linker 1-7-13 via TBMB),Fragments (human plasma),[1]; Table 3a,"-LHQ, -R"
same,Ki,human plasma Kallikrein; [2],1.74 nM
same,F (Kivar/KiWT),human plasma Kallikrein; [3],4
CC(=O)N[C@H]1CSCc2cc3cc(c2)CSC[C@H](NC(=O)[C@H](CCCNC(=N)N)NC(=O)[C@H](Cc2ccc(O)cc2)NC(=O)[C@@H]2CCCN2C(=O)[C@H](Cc2ccccc2)NC(=O)[C@H](CO)NC1=O)C(=O)N[C@@H](CC(C)C)C(=O)N[C@@H](Cc1c[nH]cn1)C(=O)N[C@@H](CCC(N)=O)C(=O)N[C@@H](C)C(=O)N[C@@H](CC(C)C)C(=O)N[C@H](C(N)=O)CSC3 [Ac-(06-34-18) Phe2 Tyr4 Ala9] (Ac-CSFPYRCLHQALC-NH2; linker 1-7-13 via TBMB),Fragments (human plasma),[1]; Table 3a,"-LHQDL, -R"
same,Ki,human plasma Kallikrein; [2],1.58 nM
same,F (Kivar/KiWT),human plasma Kallikrein; [3],4
CC(=O)N[C@H]1CSCc2cc3cc(c2)CSC[C@H](NC(=O)[C@H](CCCNC(=N)N)NC(=O)[C@H](Cc2ccc(O)cc2)NC(=O)[C@@H]2CCCN2C(=O)[C@H](Cc2ccccc2)NC(=O)[C@H](CO)NC1=O)C(=O)N[C@@H](CC(C)C)C(=O)N[C@@H](Cc1c[nH]cn1)C(=O)N[C@@H](CCC(N)=O)C(=O)N[C@@H](CC(=O)O)C(=O)N[C@@H](C)C(=O)N[C@H](C(N)=O)CSC3 [Ac-(06-34-18) Phe2 Tyr4 Ala10] (Ac-CSFPYRCLHQDAC-NH2; linker 1-7-13 via TBMB),Fragments (human plasma),[1]; Table 3a,"-LHQ, -LHQDL, -R"
same,Ki,human plasma Kallikrein; [2],13.5 nM
same,F (Kivar/KiWT),human plasma Kallikrein; [3],32
CC(=O)N[C@H]1CSCc2cc3cc(c2)CSC[C@H](NC(=O)[C@H](CCCNC(=N)N)NC(=O)[C@H](Cc2ccc(O)cc2)NC(=O)[C@@H]2CCCN2C(=O)[C@H](Cc2ccccc2)NC(=O)[C@H](CO)NC1=O)C(=O)N[C@@H](CC(C)C)C(=O)N[C@@H](Cc1c[nH]cn1)C(=O)N[C@H](CCC(N)=O)C(=O)N[C@@H](CC(=O)O)C(=O)N[C@@H](CC(C)C)C(=O)N[C@H](C(N)=O)CSC3 [Ac-(06-34-18) Phe2 Tyr4 D-Gln8] (Ac-CSFPYRCLH[dQ]DLC-NH2; linker 1-7-13 via TBMB),Fragments (human plasma),[1]; Table 3b,"-R, -FPYR"
same,Ki,human plasma Kallikrein; [4],317 nM
same,F (Kivar/KiWT),human plasma Kallikrein; [5],755
CC(=O)N[C@H]1CSCc2cc3cc(c2)CSC[C@H](NC(=O)[C@H](CCCNC(=N)N)NC(=O)[C@H](Cc2ccc(O)cc2)NC(=O)[C@@H]2CCCN2C(=O)[C@H](Cc2ccccc2)NC(=O)[C@H](CO)NC1=O)C(=O)N[C@@H](CC(C)C)C(=O)N[C@H](Cc1c[nH]cn1)C(=O)N[C@@H](CCC(N)=O)C(=O)N[C@@H](CC(=O)O)C(=O)N[C@@H](CC(C)C)C(=O)N[C@H](C(N)=O)CSC3 [Ac-(06-34-18) Phe2 Tyr4 D-His7] (Ac-CSFPYRCL[dH]QDLC-NH2; linker 1-7-13 via TBMB),Fragments (human plasma),[1]; Table 3b,"-R, -FPYR"
same,Ki,human plasma Kallikrein; [4],129 nM
same,F (Kivar/KiWT),human plasma Kallikrein; [5],308
CC(=O)N[C@H]1CSCc2cc3cc(c2)CSC[C@H](NC(=O)[C@H](CCCNC(=N)N)NC(=O)[C@H](Cc2ccc(O)cc2)NC(=O)[C@@H]2CCCN2C(=O)[C@H](Cc2ccccc2)NC(=O)[C@H](CO)NC1=O)C(=O)N[C@H](CC(C)C)C(=O)N[C@@H](Cc1c[nH]cn1)C(=O)N[C@@H](CCC(N)=O)C(=O)N[C@@H](CC(=O)O)C(=O)N[C@@H](CC(C)C)C(=O)N[C@H](C(N)=O)CSC3 [Ac-(06-34-18) Phe2 Tyr4 D-Leu6] (Ac-CSFPYRC[dL]HQDLC-NH2; linker 1-7-13 via TBMB),Fragments (human plasma),[1]; Table 3b,"-R, -FPYR"
same,Ki,human plasma Kallikrein; [4],9080 nM
same,F (Kivar/KiWT),human plasma Kallikrein; [5],21615
CC(=O)N[C@H]1CSCc2cc3cc(c2)CSC[C@H](NC(=O)[C@H](CCCNC(=N)N)NC(=O)[C@H](Cc2ccc(O)cc2)NC(=O)[C@@H]2CCCN2C(=O)[C@H](Cc2ccccc2)NC(=O)[C@H](CO)NC1=O)C(=O)N[C@@H](CC(C)C)C(=O)N[C@@H](Cc1c[nH]cn1)C(=O)N[C@@H](CCC(N)=O)C(=O)N[C@@H](CC(=O)O)C(=O)N[C@H](CC(C)C)C(=O)N[C@H](C(N)=O)CSC3 [Ac-(06-34-18) Phe2 Tyr4 D-Leu10] (Ac-CSFPYRCLHQD[dL]C-NH2; linker 1-7-13 via TBMB),Fragments (human plasma),[1]; Table 3b,"-R, -FPYR"
same,Ki,human plasma Kallikrein; [4],416 nM
same,F (Kivar/KiWT),human plasma Kallikrein; [5],990
CC(=O)N[C@H]1CSCc2cc3cc(c2)CSC[C@H](NC(=O)[C@H](CCCNC(=N)N)NC(=O)[C@H](Cc2ccc(O)cc2)NC(=O)[C@@H]2CCCN2C(=O)[C@H](Cc2ccccc2)NC(=O)[C@H](CO)NC1=O)C(=O)N[C@@H](CC(C)C)C(=O)N(CCc1c[nH]cn1)CC(=O)N[C@@H](CCC(N)=O)C(=O)N[C@@H](CC(=O)O)C(=O)N[C@@H](CC(C)C)C(=O)N[C@H](C(N)=O)CSC3 [Ac-(06-34-18) Phe2 Tyr4 N-His] (Ac-CSFPYRCL[Gly(N-CH2CH2-imidazol-4-yl)]QDLC-NH2; linker 1-7-13 via TBMB),degradation / fragments in human plasma (in words),[1]; running text and figure legends,significantly enhanced stability in loop2
CC(=O)N[C@H]1CSCc2cc3cc(c2)CSC[C@H](NC(=O)[C@H](CCCNC(=N)N)NC(=O)[C@H](Cc2ccc(O)cc2)NC(=O)[C@@H]2CCCN2C(=O)[C@H](Cc2ccccc2)NC(=O)[C@H](CO)NC1=O)C(=O)N[C@@H](CC(C)C)C(=O)N[C@@H](Cc1c[nH]cn1)C(=O)N[C@@H](CCC(N)=O)C(=O)N(C)[C@@H](CC(=O)O)C(=O)N[C@@H](CC(C)C)C(=O)N[C@H](C(N)=O)CSC3 [Ac-(06-34-18) Phe2 Tyr4 NMe-Asp9] (Ac-CSFPYRCLHQ[NMeD]LC-NH2; linker 1-7-13 via TBMB),Fragments (human plasma),[1]; Table 25a,"-R, -FPYR"
same,F (Kivar/KiWT),human plasma Kallikrein; [6],105
same,Ki,human plasma Kallikrein; [7],44.3 nM
CC(=O)N[C@H]1CSCc2cc3cc(c2)CSC[C@H](NC(=O)[C@H](CCCNC(=N)N)NC(=O)[C@H](Cc2ccc(O)cc2)NC(=O)[C@@H]2CCCN2C(=O)[C@H](Cc2ccccc2)NC(=O)[C@H](CO)NC1=O)C(=O)N[C@@H](CC(C)C)C(=O)N[C@@H](Cc1c[nH]cn1)C(=O)N(C)[C@@H](CCC(N)=O)C(=O)N[C@@H](CC(=O)O)C(=O)N[C@@H](CC(C)C)C(=O)N[C@H](C(N)=O)CSC3 [Ac-(06-34-18) Phe2 Tyr4 NMe-Gln8] (Ac-CSFPYRCLH[NMeQ]DLC-NH2; linker 1-7-13 via TBMB),Fragments (human plasma),[1]; Table 25a,"-R, -FPYR"
same,F (Kivar/KiWT),human plasma Kallikrein; [6],149
same,Ki,human plasma Kallikrein; [7],62.8 nM
CC(=O)N[C@H]1CSCc2cc3cc(c2)CSC[C@H](NC(=O)[C@H](CCCNC(=N)N)NC(=O)[C@H](Cc2ccc(O)cc2)NC(=O)[C@@H]2CCCN2C(=O)[C@H](Cc2ccccc2)NC(=O)[C@H](CO)NC1=O)C(=O)N[C@@H](CC(C)C)C(=O)N(C)[C@@H](Cc1cnc[nH]1)C(=O)N[C@@H](CCC(N)=O)C(=O)N[C@@H](CC(=O)O)C(=O)N[C@@H](CC(C)C)C(=O)N[C@H](C(N)=O)CSC3 [Ac-(06-34-18) Phe2 Tyr4 NMe-His7] (Ac-CSFPYRCL[NMeH]QDLC-NH2; linker 1-7-13 via TBMB),Fragments (human plasma),[1]; Table 25a,"-R, -FPYR"
same,F (Kivar/KiWT),human plasma Kallikrein; [6],151
same,Ki,human plasma Kallikrein; [7],63.5 nM
